Data reported in US20150374784A1, “COMPOSITIONS AND METHODS FOR REDUCING GERM CELL DEATH” (Los Angeles Biomedical Research Institute at Harbor-UCLA …, priority 2014, published 2015).

Tested on: Leydig cells
Assay: Testosterone of cultured Leydig cells treated with ketoconazole
Format: cell-based, rat
Settings: HN 10 mcg/ml + KTZ 10 mcg/ml, 4 hours
Method: Leydig cells were isolated based on a previously described procedure (Gao, et al., 1996; Klinefelter, et al., 1987; Salva, et al., 2001). Briefly, the testes were decapsulated, and then dissociated with collagenase, dispase, DNase and shaking for 15 min at 34° C. The seminiferous tubules were removed by filtration through 40 μm nylon mesh (BD Falcon, Franklin Lakes, N.J.). Leydig cells were then harvested after centrifugation and purified using a Percoll gradient (GE Healthcare, Uppsala, Sweden) and centrifugation (60 minutes at 20,000 g at 4° C.). Enriched Leydig cells were harvested at densities between 1.065 (red) and 1.075 (blue) g/cm^3 from the percoll gradient. These Leydig cells were washed by diluting the percoll and excluding residual germ cells and other cells using a BSA density gradient with centrifugation. The purity of the Leydig cells was >90%, as determined by histochemical staining for 3β-hydroxysteroid dehydrogenase. The cell viability, as assessed by trypan blue exclusion, was greater than 90%. […]
Testosterone concentrations in plasma, testes, and culture medium were measured by a previously described radioimmunoassay (Lue, et al., 2010) with a minimal detection limit of 0.1 ng/ml. […]

Sequence: MAPRGFSCLLLLTSEIDLPVKRRA [HN, 24-amino acid mitochondrial derived peptide]
- KTZ induced decrease in testosterone production by Leydig cells: did not salvage the KTZ induced decrease in testosterone production
